Tests used:
[1] = system: morningglory; experiment: Test B pre/postemergence morningglory; assay type: in vivo, Ipomoea hederacea
Source text: (§1) Seeds of bedstraw (Galium aparine), blackgrass (Alopecurus myosuroides), surinam grass (Brachiaria decumbens), cocklebur (Xanthium strumarium), corn (Zea mays), crabgrass (Digitaria sanguinalis), giant foxtail (Setaria faberii), morningglory (Ipomoea hederacea), pigweed (Amaranthus retroflexus), rape (Brassica napus), soybean (Glycine max), sugar beet (Beta vulgaris), velvetleaf (Abutilon theophrasti), wheat (Triticum aestivum), wild oat (Avena fatua) and purple nutsedge (Cyperus rotundus) tubers were planted and treated preemnergence with test chemicals formulated in a non-phytotoxic solvent mixture which included a surfactant.
(§2) At the same time, these crop and weed species were also treated with postemergence applications of test chemicals formulated in the same manner. Plants ranged in height from 2 to 18 cm (1- to 4-leaf stage) for postemergence treatments. Plant species in the flood test consisted of rice (Oryza sativa), smallflower flatsedge (Cyperus difformis), duck salad (Heteranthera limosa) and bamyardgrass (Echinochloa crus-galli) grown to the 2-leaf stage for testing. Treated plants and controls were maintained in a greenhouse for twelve to sixteen days, after which all species were compared to controls and visually evaluated. Plant response ratings, summarized in Table B, are based on a scale of 0 to 10 where 0 is no effect and 10 is complete control. A dash (−) response means no test result.

[2] = system: sugar beet; experiment: Test B pre/postemergence sugar beet; assay type: in vivo, Beta vulgaris; conditions: for Plant response rating, Sugarbeets: Rate 250 g/ha
Source text: as §1, §2

[3] = system: bedstraw; experiment: Test B pre/postemergence bedstraw; assay type: in vivo, Galium aparine
In short: (§3)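 Herbicidal effect was estimated by eye on a ten-point control scale after plants spent twelve to sixteen days in a greenhouse following soil or foliar treatment. Foliar sprays targeted plants at one to four leaves; all doses were formulated in a non-phytotoxic solvent with surfactant.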

[4] = system: soybean; experiment: Test B pre/postemergence soybean; assay type: in vivo, Glycine max
In short: as §3

[5] = system: wheat; experiment: Test B pre/postemergence wheat; assay type: in vivo, Triticum aestivum; conditions: for Plant response rating, Wheat: Rate 250 g/ha
In short: as §3

[6] = system: giant foxtail; experiment: Test B pre/postemergence giant foxtail; assay type: in vivo, Setaria faberii
Source text: as §1, §2

[7] = system: cocklebur; experiment: Test B pre/postemergence cocklebur; assay type: in vivo, Xanthium strumarium
Source text: as §1, §2

[8] = system: purple nutsedge; experiment: Test B pre/postemergence purple nutsedge; assay type: in vivo, Cyperus rotundus
In short: as §3

[9] = system: wild oat; experiment: Test B pre/postemergence wild oat; assay type: in vivo, Avena fatua; conditions: for Plant response rating, Wild oats: Rate 250 g/ha
Source text: as §1, §2

[10] = system: blackgrass; experiment: Test B pre/postemergence blackgrass; assay type: in vivo, Alopecurus myosuroides
In short: as §3

[11] = system: pigweed; experiment: Test B pre/postemergence pigweed; assay type: in vivo, Amaranthus retroflexus
Source text: as §1, §2

[12] = system: crabgrass; experiment: Test B pre/postemergence crabgrass; assay type: in vivo, Digitaria sanguinalis
In short: as §3

[13] = system: rape; experiment: Test B pre/postemergence rape; assay type: in vivo, Brassica napus
Source text: as §1, §2

[14] = system: surinam grass; experiment: Test B pre/postemergence surinam grass; assay type: in vivo, Brachiaria decumbens
Source text: as §1, §2

[15] = system: corn; experiment: Test B pre/postemergence corn; assay type: in vivo, Zea mays
In short: as §3

[16] = system: velvetleaf; experiment: Test B pre/postemergence velvetleaf; assay type: in vivo, Abutilon theophrasti; conditions: for Plant response rating, Velvetleaf: Rate 250 g/ha
Source text: as §1, §2

[17] = Postemergence, Rate 125 g/ha, scale of 0 to 10 where 0 is no effect and 10 is complete control
[18] = Postemergence, Rate 250 g/ha, scale 0 to 10, 0 no effect, 10 complete control
[19] = Preemergence, Rate 31 g/ha, visual rating, scale 0 to 10 (0 no effect, 10 complete control)
[20] = Preemergence, Rate 62 g/ha, scale 0 to 10 (0 no effect, 10 complete control)
[21] = Preemergence, Rate 125 g/ha, scale 0 to 10 (0 no effect, 10 complete control)
[22] = Preemergence, Rate 250 g/ha, scale of 0 to 10 where 0 is no effect and 10 is complete control
[23] = Rate 31 g/ha, Postemergence, scale 0 to 10
[24] = Rate 62 g/ha, Postemergence, scale of 0 to 10 where 0 is no effect and 10 is complete control
[25] = Preemergence, Rate 125 g/ha, 0 is no effect, 10 is complete control
[26] = Preemergence, scale of 0 to 10 where 0 is no effect and 10 is complete control
[27] = Postemergence, scale 0 to 10, 0 is no effect, 10 is complete control
[28] = Postemergence, Rate 62 g/ha, scale 0 to 10, 0 is no effect, 10 is complete control
[29] = Rate 125 g/ha, Postemergence, scale 0 to 10, 0 no effect, 10 complete control
[30] = Rate 250 g/ha, Postemergence, scale 0 to 10, 0 is no effect, 10 is complete control

Cc1onc(-c2ccccc2)c1-n1c(=O)on(C(=O)N(c2ccc(F)cc2)C(C)C)c1=O [Compound 100]
0: Morningglory plant response rating [1, 17] | Morningglory plant response rating [1, 18] | Morningglory plant response rating [1, 19] | Morningglory plant response rating [1, 20] | Plant response rating, Morningglory [1, 21] | Plant response rating, Morningglory [1, 22] | Morningglory plant response rating [1, 23] | Morningglory plant response rating [1, 24] | Sugarbeets plant response rating [2, 17] | Sugarbeets plant response rating [2, 19] | Sugarbeets plant response rating [2, 20] | Sugarbeets plant response rating (0 to 10 scale) [2, 25] | Plant response rating, Sugarbeets [2, 26] | Sugarbeets plant response rating [2, 24] | Plant response rating, Sugarbeets [2, 27] | Bedstraw plant response rating [3, 28] | Bedstraw plant response rating [3, 18] | Bedstraw plant response rating [3, 20] | Plant response rating, Bedstraw [3, 22] | Bedstraw plant response rating [3, 23] | Bedstraw plant response rating [3, 29] | Soybean plant response rating [4, 17] | Soybean plant response rating [4, 19] | Soybean plant response rating [4, 20] | Plant response rating, Soybean [4, 21] | Plant response rating, Soybean [4, 22] | Soybean plant response rating [4, 24] | Plant response rating, Soybean [4, 30] | Wheat plant response rating [5, 17] | Wheat plant response rating [5, 19] | Wheat plant response rating [5, 20] | Wheat plant response rating (0 to 10 scale) [5, 25] | Plant response rating, Wheat [5, 26] | Wheat plant response rating [5, 24] | Plant response rating, Wheat [5, 27] | Giant foxtail plant response rating [6, 17] | Giant foxtail plant response rating [6, 18] | Giant foxtail plant response rating [6, 19] | Giant foxtail plant response rating [6, 20] | Plant response rating, Giant foxtail [6, 21] | Plant response rating, Giant foxtail [6, 22] | Giant foxtail plant response rating [6, 23] | Giant foxtail plant response rating [6, 24] | Cocklebur plant response rating [7, 17] | Cocklebur plant response rating [7, 18] | Cocklebur plant response rating [7, 19] | Cocklebur plant response rating [7, 20] | Plant response rating, Cocklebur [7, 21] | Plant response rating, Cocklebur [7, 22] | Cocklebur plant response rating [7, 23] | Cocklebur plant response rating [7, 24] | Nutsedge plant response rating [8, 17] | Nutsedge plant response rating [8, 18] | Nutsedge plant response rating [8, 19] | Nutsedge plant response rating [8, 20] | Plant response rating, Nutsedge [8, 21] | Plant response rating, Nutsedge [8, 22] | Nutsedge plant response rating [8, 23] | Nutsedge plant response rating [8, 24] | Wild oats plant response rating [9, 17] | Wild oats plant response rating [9, 19] | Wild oats plant response rating [9, 20] | Wild oats plant response rating (0 to 10 scale) [9, 25] | Plant response rating, Wild oats [9, 26] | Wild oats plant response rating [9, 24] | Plant response rating, Wild oats [9, 27] | Blackgrass plant response rating [10, 17] | Blackgrass plant response rating [10, 18] | Blackgrass plant response rating [10, 19] | Blackgrass plant response rating [10, 20] | Plant response rating, Blackgrass [10, 21] | Plant response rating, Blackgrass [10, 22] | Blackgrass plant response rating [10, 23] | Blackgrass plant response rating [10, 24] | Redroot pigweed plant response rating [11, 17] | Redroot pigweed plant response rating [11, 19] | Redroot pigweed plant response rating [11, 20] | Plant response rating, Redroot pigweed [11, 21] | Plant response rating, Redroot pigweed [11, 22] | Redroot pigweed plant response rating [11, 23] | Redroot pigweed plant response rating [11, 24] | Plant response rating, Redroot pigweed [11, 30] | Crabgrass plant response rating [12, 17] | Crabgrass plant response rating [12, 18] | Crabgrass plant response rating [12, 19] | Crabgrass plant response rating [12, 20] | Plant response rating, Crabgrass [12, 21] | Plant response rating, Crabgrass [12, 22] | Crabgrass plant response rating [12, 23] | Crabgrass plant response rating [12, 24] | Rape plant response rating [13, 17] | Rape plant response rating [13, 18] | Rape plant response rating [13, 19] | Rape plant response rating [13, 20] | Plant response rating, Rape [13, 21] | Plant response rating, Rape [13, 22] | Rape plant response rating [13, 23] | Rape plant response rating [13, 24] | B. signalgrass plant response rating [14, 28] | B. signalgrass plant response rating [14, 18] | B. signalgrass plant response rating [14, 19] | B. signalgrass plant response rating [14, 20] | Plant response rating, B. signalgrass [14, 21] | Plant response rating, B. signalgrass [14, 22] | B. signalgrass plant response rating [14, 23] | B. signalgrass plant response rating [14, 29] | Corn plant response rating [15, 17] | Corn plant response rating [15, 18] | Corn plant response rating [15, 19] | Corn plant response rating [15, 20] | Plant response rating, Corn [15, 21] | Plant response rating, Corn [15, 22] | Corn plant response rating [15, 23] | Corn plant response rating [15, 24] | Velvetleaf plant response rating [16, 17] | Velvetleaf plant response rating [16, 19] | Velvetleaf plant response rating [16, 20] | Velvetleaf plant response rating (0 to 10 scale) [16, 25] | Plant response rating, Velvetleaf [16, 26] | Velvetleaf plant response rating [16, 24] | Plant response rating, Velvetleaf [16, 27]

— patent US6737383B1, “Herbicidal oxadiazolidines” (priority 1999, dated 2004)
